The source of these data is patent publication US9175305B2, “Mutant hydroxyphenylpyruvate dioxygenase polypeptides and methods of use” (Syngenta Participations AG, priority 2009, dated 2015).

What is called Kd is the equilibrium constant for the complex coming apart.

One data set deals with HPPD SEQ ID NO:18 (Avena sativa, UniProt A0ACD5V6K6, DEL109-109/I285T). Put plainly: biochemical. The settings on record: for koff: read-out: koff (k1). It is filed as binding. Here is the method:
(§1) On rates (governed by an association rate constant, kon) for the formation of the enzyme: inhibitor complexes, EI and off rates (governed by a dissociation rate constant, koff) were determined by methods known in the art and essentially as described in Hawkes et al. (2001) Proc. Bright. Crop. Prot. Conf. Weeds, 2:563-568 and in PCT Patent App. Pub. No. WO 02/46387).
(§2) For example, on rates were measured by, at zero time, adding ˜60 pmoles HPPD to 50 mM BisTrisPropane buffer at pH7.0 and at 25° C. containing 25 mM Na ascorbate, 4 μg/ml bovine catalase (Sigma, St. Louis, Mo.) and an excess (˜300 pmoles) of ^14C inhibitor in a total assay volume of 425 μl and, at various time points (0-180 s), quenching the radiolabel binding reaction by addition and rapid mixing of 100 μl ‘cold’ 1 mM structure A. Protein samples quenched at different times were then exchanged into 50 mM BisTrisPropane buffer at pH 7.0 containing 0.1M KCl by rapid chromatography down a NAP5 G25 Sephadex column (GE Healthcare Ltd, Buckinghamshire UK) and the amount of ^14C bound to protein fractions quantified in Optiphase scintillant using a Tri-Carb 2900TR scintillation counter (Perkin Elmer, Wellesley, Mass.). The data were fit according to the scheme below in order to derive the value of the apparent second order rate constant, k2, governing the association rate of enzyme and radiolabelled inhibitor. A range of enzyme and inhibitor concentrations were used. […] Further example methods are described in PCT Patent App. Pub. No. WO 02/46387.
(§3) Off rates (k1 in the scheme below) were derived from exchange rate studies where either the test inhibitor, I, or its exchange partner, J were radiolabelled and the data fit according to the scheme below. As noted in Hawkes et al. (2001) Proc. Bright. Crop. Prot. Conf.
(§4) After 30 minutes the exchange reaction was initiated with addition of 100 μl 1 mM ‘cold’ structure A with thorough mixing, and, immediately, 150 μl were withdrawn and loaded onto a NAP5 column, the protein exchanged into 50 mM BisTrisPropane buffer at pH 7.0 containing 0.1M KCl by rapid (<2 min) chromatography down a NAP5 G25 Sephadex column (GE Healthcare Ltd, Buckinghamshire UK) and the amount of ^14C bound to protein measured by Optiphase scintillant using a Tri-Carb 2900TR scintillation counter (Perkin Elmer, Wellesley, Mass.). Further aliquots were removed and measured in the same way at various times over minutes or hours as required in order to determine the exchange kinetics.
(§5) After 30 minutes the reaction vessel was transferred to ice. After a further 10 minutes at ice temperature the exchange reaction was initiated by addition of 100 μl 1 mM Structure A, with thorough mixing, and 150 μl was withdrawn and loaded onto a NAP5 column in a cold room at ˜5-8° C. in order to quantify the amount of radiolabel remaining bound to the protein at various time from the start of exchange at ice temperature.
(§6) Off rates (k1) of HPPD inhibitors that are not available radiolabelled or that present other measurement problems (for example high levels of background non-specific protein-binding which can be measured as radiolabel binding that persists in the presence of high concentrations of ‘cold’ inhibitor) may be measured indirectly. […] Exemplary methods are also described in PCT Patent App. Pub. No. WO 02/46387.

The next data set concerns the target HPPD SEQ ID NO:24 (Avena sativa, UniProt A0ACD5V6K6, DEL109-109/L359M). Put plainly: biochemical. It is filed as binding. The following applies: for koff: read-out: koff (k1); for kon: read-out: kon (k2). Here is the method: as §1, §2, §3, §4, §5, §6
In a further data set the target is HPPD SEQ ID NO:15 (Avena sativa, UniProt A0ACD5V6K6, DEL109-109/Q298A). Nature of the data set: biochemical. It is filed as binding. The settings on record: for koff: read-out: koff (k1). Here is the method:
as §1, §2, §3, §4, §5, §6

Another data set addresses HPPD SEQ ID NO:22 (Avena sativa, UniProt A0ACD5V6K6, DEL109-109/L256M). Put plainly: biochemical. Type of data set: binding. The following applies: for koff: read-out: koff (k1). Here is the method: as §1, §2, §3, §4, §5, §6
A further data set concerns the target HPPD SEQ ID NO:21 (Avena sativa, UniProt A0ACD5V6K6, DEL109-109/I285V). Put plainly: biochemical. It is filed as binding. The following applies: for koff: read-out: koff (k1). Here is the method: as §1, §2, §3, §4, §5, §6
A further data set has as its target HPPD SEQ ID NO:23 (Avena sativa, UniProt A0ACD5V6K6, A242W/DEL109-109). Put plainly: biochemical. It is filed as binding. The settings on record: for koff: read-out: koff (k1). Here is the method: as §1, §2, §3, §4, §5, §6
Another data set deals with HPPD SEQ ID NO:14 (Avena sativa, UniProt A0ACD5V6K6, DEL109-109). Put plainly: biochemical. The following applies: for Kd/Km ratio: HPPD SEQ ID NO:14. It is filed as binding. Here is the method: as §1, §2, §3, §4, §5, §6
Chain of HPPD SEQ ID NO:14 (A0ACD5V6K6 entry or part of it DEL109-109): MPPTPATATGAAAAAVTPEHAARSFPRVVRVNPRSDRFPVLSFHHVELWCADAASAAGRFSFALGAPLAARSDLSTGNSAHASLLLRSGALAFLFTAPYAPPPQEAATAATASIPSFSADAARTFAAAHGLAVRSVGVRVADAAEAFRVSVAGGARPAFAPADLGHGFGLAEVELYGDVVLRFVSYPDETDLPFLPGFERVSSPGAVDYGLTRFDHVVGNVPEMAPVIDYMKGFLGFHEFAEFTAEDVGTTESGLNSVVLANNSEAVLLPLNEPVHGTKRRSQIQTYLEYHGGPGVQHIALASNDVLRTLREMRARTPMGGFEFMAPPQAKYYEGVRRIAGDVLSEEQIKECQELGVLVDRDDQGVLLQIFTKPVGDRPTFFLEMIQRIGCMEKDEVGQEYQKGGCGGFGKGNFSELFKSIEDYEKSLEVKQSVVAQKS
The nature of data set [1]: Km and kcat of expressed HPPDs (HPLC/UV quantitation of homogentisate). Type of data set: biochemical, Avena sativa. The following applies: for V217I, L271I, L271V, V258M, A326R estimated from initial rates in cell extracts, pH 7.0, 25° C., 120 μM HPP. Here is the method:
The assay solution was transferred to Chromacol 03-CVG HPLC vials, sealed and the amount of homogentisate formed in a 40 μl aliquot determined by injection onto a reverse phase Aqua C18 5μ 75×4.6 mm HPLC column running 5.5% acetonitrile 0.1% TFA (Buffer A) at 1.5 ml/min. The column was eluted at 1.5 ml/minute using a 2 minute wash in buffer A, followed by a 2 minute wash in a 30/70 mixture of buffer A and 100% Acetonitrile, and a further 3.5 minute wash in buffer A. The elution of homogentisate was monitored by UV at 292 nm and the amount formed in each reaction quantified by comparison with a standard calibration curve.
Km and Vmax values were determined (for example FIG. 1) using a non linear least squares fit using Grafit 4™ software (Erithacus Software, Middlesex, UK). Kcat values were determined by dividing the maximum rate, Vmax expressed in nmol/second by the number of nmoles of HPPD enzyme (based on the concentration determined by active-site titration).
Experiments were carried out as described for Table 4. ‘Sulc’ denotes sulcotrione and ‘nd’ means ‘no data’. For V217I, L271I, L271V, V258M and A326R, the relative values of kcat were estimated from comparisons of the initial rates in cell extracts of similarly prepared and expressed HPPDs in conventional enzyme activity assays at pH 7.0, 25° C. and at a substrate concentration of 120 μM HPP.

Data set [2] can be described thus: catalytic activity and herbicide resistance of mutants of SEQ ID NO:14 in extracts. It is filed as biochemical, Avena sativa. The text has this:
These further mutations can all be optionally combined with the resistance conferring mutations to produce catalytically active variants of HPPD herbicide resistant enzymes of the current invention.

[3] abbreviates: 25° C., direct, radiochemical method, average and individual experiments, read-out: Off rate k1.
Where [4] appears, read: 25° C., direct, radiochemical method, average and individual experiments, read-out: On rate k2.
The mark [5] stands for this setting: HPPD variant SEQ ID# 14, 25° C.
[6] abbreviates: estimated from on and off rates, 25° C.

Positions count from the first letter of the chain named. Names may count otherwise. “And” between values parts separate entries of the source, which are not always exact repeats. Equal entries are not always repeated. Where two headings read alike, the source gives them in different places.

Chain of HPPD SEQ ID NO:21 (A0ACD5V6K6 entry or part of it DEL109-109/I285V): as the sequence (A0ACD5V6K6 entry or part of it DEL109-109) above, with I284V counted along it
Chain of HPPD SEQ ID NO:15 (A0ACD5V6K6 entry or part of it DEL109-109/Q298A): as the sequence (A0ACD5V6K6 entry or part of it DEL109-109) above, with Q297A counted along it
Chain of HPPD SEQ ID NO:22 (A0ACD5V6K6 entry or part of it DEL109-109/L256M): as the sequence (A0ACD5V6K6 entry or part of it DEL109-109) above, with L255M counted along it
Chain of HPPD SEQ ID NO:23 (A0ACD5V6K6 entry or part of it DEL109-109/A242W): as the sequence (A0ACD5V6K6 entry or part of it DEL109-109) above, with A241W counted along it
Chain of HPPD SEQ ID NO:24 (A0ACD5V6K6 entry or part of it DEL109-109/L359M): as the sequence (A0ACD5V6K6 entry or part of it DEL109-109) above, with L358M counted along it
Chain of HPPD SEQ ID NO:18 (A0ACD5V6K6 entry or part of it DEL109-109/I285T): as the sequence (A0ACD5V6K6 entry or part of it DEL109-109) above, with I284T counted along it

For the molecule `CCOc1c(S(C)(=O)=O)ccc(C(=O)C2C(=O)CC(C)CC2=O)c1Cl` (stereo not shown) [Structure A], the dissociation constant (Kd) worked out at 0.4 nM on HPPD SEQ ID NO:18; 0.27 nM on HPPD SEQ ID NO:24; 0.95 nM on HPPD SEQ ID NO:15; 0.13 nM on HPPD SEQ ID NO:22; 0.2 nM on HPPD SEQ ID NO:21; 0.33 nM on HPPD SEQ ID NO:23. Also, the Kd is 0.2 nM on HPPD SEQ ID NO:14 (setting [5]) and 0.196 nM on HPPD SEQ ID NO:14 (setting [6]). Also, the koff was determined as 1.67e-05 s⁻¹ on HPPD SEQ ID NO:18; 2.3e-05 s⁻¹ on HPPD SEQ ID NO:24; 3.33e-05 s⁻¹ on HPPD SEQ ID NO:15; 1.08e-05 s⁻¹ at HPPD SEQ ID NO:22; 1.67e-05 s⁻¹ at HPPD SEQ ID NO:21; 2.83e-05 s⁻¹ on HPPD SEQ ID NO:23. The koff on HPPD SEQ ID NO:14 (setting [3]) and at HPPD SEQ ID NO:14 (read-out: koff (k1)) was 1.67e-05 s⁻¹ in each case. For the same molecule, the kon at HPPD SEQ ID NO:18 (read-out: kon (k2)) worked out at 42000 M⁻¹ s⁻¹; on HPPD SEQ ID NO:24, 85000 M⁻¹ s⁻¹; at HPPD SEQ ID NO:15 (read-out: kon (k2)), 35000 M⁻¹ s⁻¹; at HPPD SEQ ID NO:22 (read-out: kon (k2)), 85000 M⁻¹ s⁻¹; at HPPD SEQ ID NO:21 (read-out: kon (k2)), 85000 M⁻¹ s⁻¹; at HPPD SEQ ID NO:23 (read-out: kon (k2)) it was 85000 M⁻¹ s⁻¹. Besides, the kon on HPPD SEQ ID NO:14 (setting [4]) and at HPPD SEQ ID NO:14 (read-out: kon (k2)) was 85000 M⁻¹ s⁻¹ throughout. Besides, the Kd/Km ratio on HPPD SEQ ID NO:14 is recorded as 0.000036.
Turning to `CS(=O)(=O)c1cc(C(F)(F)F)ccc1C(=O)C(C#N)C(=O)C1CC1` (stereo not shown) [Structure D], the koff at HPPD SEQ ID NO:18 came to 3.96e-05 s⁻¹; on HPPD SEQ ID NO:24 it was 9.18e-05 s⁻¹; on HPPD SEQ ID NO:15, 2.37e-05 s⁻¹; at HPPD SEQ ID NO:22, 2.37e-05 s⁻¹; on HPPD SEQ ID NO:21, 3.96e-05 s⁻¹; at HPPD SEQ ID NO:23, 2.37e-05 s⁻¹. For the same molecule, the koff on HPPD SEQ ID NO:14 (setting [3]) and on HPPD SEQ ID NO:14 (read-out: koff (k1)) was 3.96e-05 s⁻¹ each time. Moreover, the Kd on HPPD SEQ ID NO:24 was 2.9 nM; at HPPD SEQ ID NO:14 (setting [5]), 1.2 nM; on HPPD SEQ ID NO:14 (setting [6]) it was 1.23 nM. Also, the kon turned out to be 32000 M⁻¹ s⁻¹ at HPPD SEQ ID NO:24; 32000 M⁻¹ s⁻¹ at HPPD SEQ ID NO:14 (setting [4]); 32000 M⁻¹ s⁻¹ on HPPD SEQ ID NO:14 (25° C., enzyme activity-based method, read-out: On rate, activity-based method); 32000 M⁻¹ s⁻¹ on HPPD SEQ ID NO:14 (read-out: kon (k2)). For the same molecule, on HPPD SEQ ID NO:14 (25° C., direct, radiochemical method, average and individual experiments), the “Off rate k1” value is 4.17e-05 s⁻¹ and 3.75e-05 s⁻¹. Further, on HPPD SEQ ID NO:14, the Kd/Km ratio came out at 0.00023.

B1: V258M: V258M mutant of HPPD SEQ ID NO:14 (protein)
chain: MPPTPATATGAAAAAVTPEHAARSFPRVVRVNPRSDRFPVLSFHHVELWCADAASAAGRFSFALGAPLAARSDLSTGNSAHASLLLRSGALAFLFTAPYAPPPQEAATAATASIPSFSADAARTFAAAHGLAVRSVGVRVADAAEAFRVSVAGGARPAFAPADLGHGFGLAEVELYGDVVLRFVSYPDETDLPFLPGFERVSSPGAVDYGLTRFDHVVGNVPEMAPVIDYMKGFLGFHEFAEFTAEDVGTTESGLNSMVLANNSEAVLLPLNEPVHGTKRRSQIQTYLEYHGGPGVQHIALASNDVLRTLREMRARTPMGGFEFMAPPQAKYYEGVRRIAGDVLSEEQIKECQELGVLVDRDDQGVLLQIFTKPVGDRPTFFLEMIQRIGCMEKDEVGQEYQKGGCGGFGKGNFSELFKSIEDYEKSLEVKQSVVAQKS
modifications: mutant HPPD polypeptide
In the case of B1, the “Rate: kcat relative to non-mutated HPPD SEQ ID NO:14” value in data set [1] is given as 1. Moreover, the “catalytic activity and resistance to sulcotrione relative to control, unmutated SEQ ID NO:14” value in data set [2] is given as “neutral mutations”.

B2: V258K: V258K mutant of SEQ ID NO:14 (protein)
chain: B1 chain with M258K
modifications: mutant HPPD polypeptide
B2: in [2], the “catalytic activity and resistance to sulcotrione relative to control, unmutated SEQ ID NO:14” value was “neutral mutations”.

B3: V258A: V258A mutant of SEQ ID NO:14 (protein)
chain: B1 chain with M258A
modifications: mutant HPPD polypeptide
For the molecule B3, the “catalytic activity and resistance to sulcotrione relative to control, unmutated SEQ ID NO:14” value in data set [2] is recorded as “neutral mutations”.
